Measurements as given in patent US12390419B2, “Formulations of (R)-2-amino-3-phenylpropyl carbamate” (AXSOME MALTA LTD., priority 2016, dated 2025).
≈ marks a conversion by molar mass, not a printed value.

Key:
[1] = Dissolution of coated APC tablets in three media (apparatus 1 basket, 100 rpm, 900 ml, 37° C.); type: physicochemical
Experimental: A substantial concern was the effect of media pH. Although APC will be developed as an immediate release product, FDA guidances require comparison of profiles in three media including pH 6.8 (representing intestinal pH). […] The media used were 0.1 N HCl pH 1.2, acetate buffer pH 4.5, and phosphate buffer pH 6.8. The dissolution study was carried using 12 tablets per dose, apparatus 1 (basket), 900 ml media volume, 37° C., 100 rpm. The tablets were coated with Opadry white polymer system.

[2] = Solubility of APC in 0.2M phosphate buffers; type: physicochemical

Q: Which results are given for `NC(=O)OC[C@H](N)Cc1ccccc1` [APC, (R)-2-amino-3-phenylpropyl carbamate]?
A: Percent release ([1]; 37.5 mg tablet, pH 1.2, 5 min): 71.9%; Percent release ([1]; 37.5 mg tablet, pH 1.2, 10 min): 99.3%; Percent release ([1]; 37.5 mg tablet, pH 1.2, 15 min): 99.7%; Percent release ([1]; 37.5 mg tablet, pH 4.5, 5 min): 76.8%; Percent release ([1]; 37.5 mg tablet, pH 4.5, 10 min): 101.8%; Percent release ([1]; 37.5 mg tablet, pH 4.5, 15 min): 102.1%; Percent release ([1]; 37.5 mg tablet, pH 6.8, 5 min): 69.6%; Percent release ([1]; 37.5 mg tablet, pH 6.8, 10 min): 100.2%; Percent release ([1]; 37.5 mg tablet, pH 6.8, 15 min): 100.7%; Percent release ([1]; 75 mg tablet, pH 1.2, 5 min): 62.9%; Percent release ([1]; 75 mg tablet, pH 1.2, 10 min): 98.7%; Percent release ([1]; 75 mg tablet, pH 1.2, 15 min): 99.4%; Percent release ([1]; 75 mg tablet, pH 4.5, 5 min): 53.9%; Percent release ([1]; 75 mg tablet, pH 4.5, 10 min): 100.8%; Percent release ([1]; 75 mg tablet, pH 4.5, 15 min): 102.5%; Percent release ([1]; 75 mg tablet, pH 6.8, 5 min): 57.6%; Percent release ([1]; 75 mg tablet, pH 6.8, 10 min): 99.4%; Percent release ([1]; 75 mg tablet, pH 6.8, 15 min): 100.2%; Percent release ([1]; 150 mg tablet, pH 1.2, 5 min): 46.8%; Percent release ([1]; 150 mg tablet, pH 1.2, 10 min): 96.9%; Percent release ([1]; 150 mg tablet, pH 1.2, 15 min): 98.4%; Percent release ([1]; 150 mg tablet, pH 4.5, 5 min): 42.6%; Percent release ([1]; 150 mg tablet, pH 4.5, 10 min): 97.7%; Percent release ([1]; 150 mg tablet, pH 4.5, 15 min): 100.4%; Percent release ([1]; 150 mg tablet, pH 6.8, 5 min): 42.4%; Percent release ([1]; 150 mg tablet, pH 6.8, 10 min): 97.4%; Percent release ([1]; 150 mg tablet, pH 6.8, 15 min): 100.7%; Percent release ([1]; 300 mg tablet, pH 1.2, 5 min): 35.0%; Percent release ([1]; 300 mg tablet, pH 1.2, 10 min): 91.2%; Percent release ([1]; 300 mg tablet, pH 1.2, 15 min): 99.5%; Percent release ([1]; 300 mg tablet, pH 4.5, 5 min): 30.0%; Percent release ([1]; 300 mg tablet, pH 4.5, 10 min): 89.1%; Percent release ([1]; 300 mg tablet, pH 4.5, 15 min): 99.8%; Percent release ([1]; 300 mg tablet, pH 6.8, 5 min): 31.6%; Percent release ([1]; 300 mg tablet, pH 6.8, 10 min): 89.9%; Percent release ([1]; 300 mg tablet, pH 6.8, 15 min): 100.2%; solubility ([2]; 0.2M phosphate buffer, pH 6.8, aqueous buffer, thermodynamic from solid): 26 mg/mL (≈ 134 mM); solubility ([2]; aqueous buffer, thermodynamic from solid, 0.2M phosphate buffer pH 5.33, pH after equilibration 4.25): 542 mg/mL (≈ 2790 mM); solubility ([2]; aqueous buffer, thermodynamic from solid, 0.2M phosphate buffer pH 5.95, pH after equilibration 4.78): 525 mg/mL (≈ 2710 mM); solubility ([2]; aqueous buffer, thermodynamic from solid, 0.2M phosphate buffer pH 6.97, pH after equilibration 6.76): 26.6 mg/mL (≈ 137 mM); solubility ([2]; aqueous buffer, thermodynamic from solid, 0.2M phosphate buffer pH 8.02, pH after equilibration 7.47): 22.5 mg/mL (≈ 116 mM); solubility ([2]; aqueous buffer, thermodynamic from solid, 0.2M phosphate buffer pH 8.99, pH after equilibration 7.55): 22.4 mg/mL (≈ 115 mM); solubility ([2]; pH 4.22, thermodynamic from solid, pH of buffer N/A (water), pH after equilibration 4.22): 534 mg/mL (≈ 2750 mM); solubility ([2]; water or acidic media, water, thermodynamic from solid): 530 mg/mL (≈ 2730 mM)
